In patent US20260262643A1, “HERBICIDAL BENZOXAZINES” (FMC CORPORATION, priority 2022, published 2026):

Key:
[1] = tested on: barnyardgrass; assay: Test C preemergence; type: in vivo, Echinochloa crusgalli; conditions: 0 to 100 scale (0 no effect, 100 complete control); for Barnyardgrass plant response rating: 125 g ai/ha, preemergence; for Plant response rating, Barnyardgrass: Preemergence, 500 g ai/ha, visual rating after 10 days
Summary of the method: (§1)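 Soil-applied (pre) and foliar (post, 1–2 leaf, 2–10 cm) sprays; surfactant-containing non-phytotoxic solvent vehicle; loam/sand substrate. Readout: visual % control at 10 d, greenhouse, versus untreated.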

[2] = tested on: blackgrass; assay: Test C preemergence; type: in vivo, Alopecurus myosuroides; conditions: 0 to 100 scale (0 no effect, 100 complete control); for Plant response rating, Blackgrass: Preemergence, 500 g ai/ha, visual rating after 10 days; for Blackgrass plant response rating: Test C, preemergence, 125 g ai/ha
Summary of the method: as §1

[3] = tested on: corn; assay: Test C preemergence; type: in vivo, Zea mays; conditions: 0 to 100 scale (0 no effect, 100 complete control); for Corn plant response rating: preemergence
Summary of the method: as §1

[4] = tested on: green foxtail; assay: Test C preemergence; type: in vivo, Setaria viridis; conditions: 0 to 100 scale (0 no effect, 100 complete control); for Foxtail, Green plant response rating: preemergence
Summary of the method: as §1

[5] = tested on: kochia; assay: Test C preemergence; type: in vivo, Bassia scoparia; conditions: 0 to 100 scale (0 no effect, 100 complete control); for Kochia plant response rating: preemergence
Summary of the method: as §1

[6] = tested on: oat, wild; assay: Test C preemergence; type: in vivo, Avena fatua; conditions: 0 to 100 scale (0 no effect, 100 complete control); for Oat, Wild plant response rating: preemergence
Summary of the method: as §1

[7] = tested on: pigweed, palmer; assay: Test C preemergence; type: in vivo, Amaranthus palmeri; conditions: 0 to 100 scale (0 no effect, 100 complete control); for Pigweed, Palmer plant response rating: preemergence
Summary of the method: as §1

[8] = tested on: ragweed; assay: Test C preemergence; type: in vivo, Ambrosia artemisiifolia; conditions: 0 to 100 scale (0 no effect, 100 complete control); for Ragweed plant response rating: preemergence
Summary of the method: as §1

[9] = tested on: ryegrass, Italian; assay: Test C preemergence; type: in vivo, Lolium multiflorum; conditions: 0 to 100 scale (0 no effect, 100 complete control); for Ryegrass, Italian plant response rating: preemergence
Summary of the method: as §1

[10] = tested on: soybean; assay: Test C preemergence; type: in vivo, Glycine max; conditions: 0 to 100 scale (0 no effect, 100 complete control); for Soybean plant response rating: preemergence
Summary of the method: as §1

[11] = tested on: wheat; assay: Test C preemergence; type: in vivo, Triticum aestivum; conditions: 0 to 100 scale (0 no effect, 100 complete control); for Wheat plant response rating: preemergence
Summary of the method: as §1

[12] = tested on: barnyardgrass; assay: Test C postemergence; type: in vivo, Echinochloa crusgalli; conditions: 10 days
Summary of the method: as §1

[13] = tested on: blackgrass; assay: Test C postemergence; type: in vivo, Alopecurus myosuroides; conditions: 10 days
Summary of the method: as §1

[14] = tested on: corn; assay: Test C postemergence; type: in vivo, Zea mays; conditions: 10 days
Summary of the method: as §1

[15] = tested on: green foxtail; assay: Test C postemergence; type: in vivo, Setaria viridis; conditions: 10 days
Summary of the method: as §1

[16] = tested on: kochia; assay: Test C postemergence; type: in vivo, Bassia scoparia; conditions: 10 days
Summary of the method: as §1

[17] = tested on: oat, wild; assay: Test C postemergence; type: in vivo, Avena fatua; conditions: 10 days
Summary of the method: as §1

[18] = tested on: pigweed, palmer; assay: Test C postemergence; type: in vivo, Amaranthus palmeri; conditions: 10 days
Summary of the method: as §1

[19] = tested on: ragweed; assay: Test C postemergence; type: in vivo, Ambrosia artemisiifolia; conditions: 10 days
Summary of the method: as §1

[20] = tested on: ryegrass, Italian; assay: Test C postemergence; type: in vivo, Lolium multiflorum; conditions: 10 days
Summary of the method: as §1

[21] = tested on: soybean; assay: Test C postemergence; type: in vivo, Glycine max; conditions: 10 days
Summary of the method: as §1

[22] = tested on: wheat; assay: Test C postemergence; type: in vivo, Triticum aestivum; conditions: 10 days
Summary of the method: as §1

[23] = tested on: galium; assay: Test C postemergence; type: in vivo, Galium aparine; conditions: 10 days
Summary of the method: as §1

[24] = tested on: horseweed; assay: Test C postemergence; type: in vivo, Erigeron canadensis; conditions: 10 days
Summary of the method: as §1

[25] = tested on: barnyardgrass; assay: Test D flooded paddy test; type: in vivo, Echinochloa crus-galli; conditions: 250 g ai/ha, applied to paddy water, visual rating after 13 to 14 days, scale 0 to 100 (0 no effect, 100 complete control)
Summary of the method: (§2)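 Compounds go straight into paddy water over 2-leaf plants in pots flooded to 3 cm. Greenhouse holding lasts 13 to 14 days. Injury is scored by eye against controls from 0 (none) to 100 (complete control).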

[26] = tested on: ducksalad; assay: Test D flooded paddy test; type: in vivo, Heteranthera limosa; conditions: 250 g ai/ha, applied to paddy water, visual rating after 13 to 14 days, scale 0 to 100 (0 no effect, 100 complete control)
Summary of the method: as §2

[27] = tested on: rice; assay: Test D flooded paddy test; type: in vivo, Oryza sativa; conditions: 250 g ai/ha, applied to paddy water, visual rating after 13 to 14 days, scale 0 to 100 (0 no effect, 100 complete control)
Summary of the method: as §2

[28] = tested on: sedge, umbrella; assay: Test D flooded paddy test; type: in vivo, Cyperus difformis; conditions: 250 g ai/ha, applied to paddy water, visual rating after 13 to 14 days, scale 0 to 100 (0 no effect, 100 complete control)
Summary of the method: as §2

[29] = Preemergence, 500 g ai/ha, visual rating after 10 days
[30] = 125 g ai/ha, postemergence, 0 to 100 scale, 0 no effect, 100 complete control
[31] = Postemergence, 500 g ai/ha, visual 0 to 100 scale (0 no effect, 100 complete control)

C[C@H]1CN(C(=O)c2cc(-n3cnc(C(C)(C)C)n3)cc3c2OCCO3)c2cccc(Cl)c2O1 [Compound 154]
Barnyardgrass plant response rating [1]: 70 | Plant response rating, Barnyardgrass [1]: 100 | Plant response rating, Blackgrass [2]: 60 | Blackgrass plant response rating [2]: 20 | Plant response rating, Corn [3, 29]: 30 | Corn plant response rating ([3]; Test C, 125 g ai/ha): 0 | Plant response rating, Foxtail, Green [4, 29]: 100 | Foxtail, Green plant response rating ([4]; Test C, 125 g ai/ha): 100 | Plant response rating, Kochia [5, 29]: 100 | Kochia plant response rating ([5]; Test C, 125 g ai/ha): 100 | Plant response rating, Oat, Wild [6, 29]: 30 | Oat, Wild plant response rating ([6]; Test C, 125 g ai/ha): 20 | Plant response rating, Pigweed, Palmer [7, 29]: 100 | Pigweed, Palmer plant response rating ([7]; Test C, 125 g ai/ha): 100 | Plant response rating, Ragweed [8, 29]: 100 | Ragweed plant response rating ([8]; Test C, 125 g ai/ha): 50 | Plant response rating, Ryegrass, Italian [9, 29]: 90 | Ryegrass, Italian plant response rating ([9]; Test C, 125 g ai/ha): 70 | Plant response rating, Soybean [10, 29]: 100 | Soybean plant response rating ([10]; Test C, 125 g ai/ha): 40 | Plant response rating, Wheat [11, 29]: 60 | Wheat plant response rating ([11]; Test C, 125 g ai/ha): 10 | Plant response rating, Barnyardgrass [12, 30]: 20 | Plant response rating, Barnyardgrass [12, 31]: 50 | Plant response rating, Blackgrass [13, 30]: 20 | Plant response rating, Blackgrass [13, 31]: 90 | Plant response rating, Corn [14, 30]: 20 | Plant response rating, Corn [14, 31]: 50 | Plant response rating, Foxtail, Green [15, 30]: 40 | Plant response rating, Foxtail, Green [15, 31]: 90 | Plant response rating, Kochia [16, 30]: 100 | Plant response rating, Kochia [16, 31]: 100 | Plant response rating, Oat, Wild [17, 30]: 10 | Plant response rating, Oat, Wild [17, 31]: 20 | Plant response rating, Pigweed, Palmer [18, 30]: 90 | Plant response rating, Pigweed, Palmer [18, 31]: 100 | Plant response rating, Ragweed [19, 30]: 100 | Plant response rating, Ragweed [19, 31]: 100 | Plant response rating, Ryegrass, Italian [20, 30]: 30 | Plant response rating, Ryegrass, Italian [20, 31]: 70 | Plant response rating, Soybean [21, 30]: 90 | Plant response rating, Soybean [21, 31]: 100 | Plant response rating, Wheat [22, 30]: 10 | Plant response rating, Wheat [22, 31]: 30 | Plant response rating, Galium [23, 30]: 100 | Plant response rating, Galium [23, 31]: 100 | Plant response rating, Horseweed [24, 30]: 80 | Plant response rating, Horseweed [24, 31]: 70 | Plant response rating, Barnyardgrass (Flood) [25]: 15 | Plant response rating, Ducksalad (Flood) [26]: 10 | Plant response rating, Rice (Flood) [27]: 10 | Plant response rating, Sedge, Umbrella (Flood) [28]: 70

CCc1ccc(-n2cnc(C(C)(C)O)n2)cc1C(=O)N1C[C@H](C)Oc2c(Cl)cccc21 [Compound 277]
Plant response rating, Barnyardgrass [1]: 100 | Barnyardgrass plant response rating ([1]; Test C): 100 | Plant response rating, Blackgrass [2]: 90 | Blackgrass plant response rating [2]: 80 | Corn plant response rating ([3]; 500 g ai/ha): 80 | Corn plant response rating ([3]; Test C, 125 g ai/ha): 50 | Foxtail, Green plant response rating ([4]; 500 g ai/ha): 100 | Foxtail, Green plant response rating ([4]; Test C, 125 g ai/ha): 100 | Kochia plant response rating ([5]; 500 g ai/ha): 90 | Kochia plant response rating ([5]; Test C, 125 g ai/ha): 70 | Oat, Wild plant response rating ([6]; 500 g ai/ha): 90 | Oat, Wild plant response rating ([6]; Test C, 125 g ai/ha): 80 | Pigweed, Palmer plant response rating ([7]; 500 g ai/ha): 100 | Pigweed, Palmer plant response rating ([7]; Test C, 125 g ai/ha): 100 | Ragweed plant response rating ([8]; 500 g ai/ha): 70 | Ragweed plant response rating ([8]; Test C, 125 g ai/ha): 30 | Ryegrass, Italian plant response rating ([9]; 500 g ai/ha): 100 | Ryegrass, Italian plant response rating ([9]; Test C, 125 g ai/ha): 80 | Soybean plant response rating ([10]; 500 g ai/ha): 100 | Soybean plant response rating ([10]; Test C, 125 g ai/ha): 90 | Wheat plant response rating ([11]; 500 g ai/ha): 80 | Wheat plant response rating ([11]; Test C, 125 g ai/ha): 50 | Plant response rating, Barnyardgrass [12, 30]: 100 | Plant response rating, Barnyardgrass [12, 31]: 100 | Plant response rating, Blackgrass [13, 30]: 80 | Plant response rating, Blackgrass [13, 31]: 90 | Plant response rating, Corn [14, 30]: 90 | Plant response rating, Corn [14, 31]: 100 | Plant response rating, Foxtail, Green [15, 30]: 90 | Plant response rating, Foxtail, Green [15, 31]: 90 | Plant response rating, Kochia [16, 30]: 70 | Plant response rating, Oat, Wild [17, 30]: 80 | Plant response rating, Pigweed, Palmer [18, 30]: 80 | Plant response rating, Ragweed [19, 30]: 80 | Plant response rating, Ryegrass, Italian [20, 30]: 90 | Plant response rating, Soybean [21, 30]: 100 | Plant response rating, Wheat [22, 30]: 50 | Plant response rating, Galium [23, 30]: 100 | Plant response rating, Galium [23, 31]: 100 | Plant response rating, Horseweed [24, 30]: 0 | Plant response rating, Horseweed [24, 31]: 30 | Plant response rating, Barnyardgrass (Flood) [25]: 55 | Plant response rating, Ducksalad (Flood) [26]: 40 | Plant response rating, Rice (Flood) [27]: 15 | Plant response rating, Sedge, Umbrella (Flood) [28]: 98
